The values below come from PubChem BioAssay (NCI).

Among the test systems are M14 melanoma; NCI/ADR-RES ovarian; SF-295 CNS; MOLT-4 leukemia; HOP-92 NSCLC; ACHN renal; UO-31 renal; SN12C renal; UACC-62 melanoma; DU-145 prostate.
Test in all cases: NCI-60 cell line screen, 48 h

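The compound was tested at five concentrations on cells cultured in 96-well plates, with a 48-hour exposure period. GI50 is the concentration that inhibits growth by half. TGI: total growth inhibition.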

Take `CCSc1ncc(Br)c(Sc2nc(N)nc3nc[nH]c23)n1`: the GI50 with M14 melanoma is 1.79 µM; with NCI/ADR-RES ovarian, 3.48 µM; in the assay with SF-295 CNS, 1.82 µM; in the assay on MOLT-4 leukemia it was 3.42 µM; in the assay on HOP-92 NSCLC, 1.97 µM; with ACHN renal, 6.58 µM. Besides, the GI50 is 2.3 µM in the assay with UO-31 renal, 4.52 µM with SN12C renal, 2.37 µM in the assay on UACC-62 melanoma and 2.95 µM in the assay on DU-145 prostate. Moreover, the TGI with M14 melanoma is 8.68 µM; with NCI/ADR-RES ovarian, greater than 100 µM; in the assay with SF-295 CNS, greater than 100 µM; with MOLT-4 leukemia it was greater than 100 µM; in the assay on HOP-92 NSCLC, 43.4 µM; with ACHN renal, greater than 100 µM. The TGI in the assay on UO-31 renal was greater than 100 µM; in the assay with SN12C renal, greater than 100 µM; in the assay with UACC-62 melanoma, 20.4 µM; in the assay with DU-145 prostate it was 60.9 µM.
Take `COc1ccc(/C(C)=C(\c2ccc(Cl)cc2)c2ccc(OCCN3CCCCCC3)cc2)cc1F`: the GI50 is 2.74 µM in the assay on M14 melanoma; 4 µM in the assay on NCI/ADR-RES ovarian; 2.69 µM in the assay on SF-295 CNS; 3.91 µM in the assay on MOLT-4 leukemia; 2.57 µM in the assay with HOP-92 NSCLC; 5.19 µM in the assay on ACHN renal. Moreover, the GI50 in the assay on UO-31 renal was 2.17 µM; in the assay on SN12C renal, 2.96 µM; in the assay on UACC-62 melanoma, 3.52 µM; with DU-145 prostate it was 4.47 µM. Further, the TGI in the assay on M14 melanoma was 7.18 µM; in the assay on NCI/ADR-RES ovarian, 12.4 µM; in the assay with SF-295 CNS it was 5.61 µM; in the assay with MOLT-4 leukemia it was 11.8 µM; in the assay on HOP-92 NSCLC, 6.62 µM; in the assay with ACHN renal, greater than 16.7 µM. Further, the TGI turned out to be 4.47 µM in the assay on UO-31 renal, 8.3 µM with SN12C renal, 8.02 µM in the assay with UACC-62 melanoma and 15.6 µM with DU-145 prostate.
